Reference: PubChem BioAssay (NCI)
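Each compound was tested at five concentrations against cells in 96-well plates for 48 hours. Here, GI50 denotes the concentration required for 50% inhibition of growth. The concentration for full growth arrest is given as TGI.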

Columns and labels:
Assay in all cases: growth of human tumour cells (NCI), 48 h
HCC-2998 colon = test system: HCC-2998 colon
T-47D breast = test system: T-47D breast
HCT-15 colon = test system: HCT-15 colon
PC-3 prostate = test system: PC-3 prostate
SK-OV-3 ovarian = test system: SK-OV-3 ovarian
SF-268 CNS = test system: SF-268 CNS
A498 renal = test system: A498 renal
HOP-62 NSCLC = test system: HOP-62 NSCLC
MDA-MB-231 breast = test system: MDA-MB-231 breast
RPMI-8226 leukemia = test system: RPMI-8226 leukemia

| SMILES | TGI (HCC-2998 colon) | TGI (T-47D breast) | TGI (HCT-15 colon) | TGI (PC-3 prostate) | TGI (SK-OV-3 ovarian) | TGI (SF-268 CNS) | TGI (A498 renal) | TGI (HOP-62 NSCLC) | TGI (MDA-MB-231 breast) | TGI (RPMI-8226 leukemia) | GI50 (HCC-2998 colon) | GI50 (T-47D breast) | GI50 (HCT-15 colon) | GI50 (SK-OV-3 ovarian) | GI50 (SF-268 CNS) | GI50 (A498 renal) | GI50 (HOP-62 NSCLC) | GI50 (MDA-MB-231 breast) |
| --- | --- | --- | --- | --- | --- | --- | --- | --- | --- | --- | --- | --- | --- | --- | --- | --- | --- | --- |
| CCc1c(O)cc(=O)oc1-c1ccc(OC)c(OC)c1 | > 100 µM | > 100 µM | > 100 µM | > 100 µM | > 100 µM | > 100 µM | > 100 µM | > 100 µM | > 100 µM |  |  |  |  |  |  |  |  |  |
| O=C(c1ccco1)N(C(=O)N1CCCCC1)c1ccccc1 |  |  | > 100 µM | > 100 µM | > 100 µM | > 100 µM | > 100 µM |  | > 100 µM | > 100 µM |  |  |  |  |  |  |  |  |
| COCOc1ccc(C(=O)Oc2cccc3c2OC(C)(C)O3)c(OCOC)c1 | > 100 µM | > 100 µM | > 100 µM |  | > 100 µM | > 100 µM | > 100 µM | > 100 µM | > 100 µM | > 100 µM |  |  |  |  |  |  |  |  |
| O=C(/C=C/c1ccc(O)c(O)c1)OCCc1ccc2ccccc2c1 | 30.9 µM | 18.7 µM | 10.2 µM | 20.5 µM | 26.3 µM | 27 µM | 28.4 µM | 26.4 µM | 24.3 µM |  |  |  |  |  |  |  |  |  |
| Cc1nc(N)c(N2CCN(C#N)CC2)c(=O)[nH]1 | > 100 µM | > 100 µM | > 100 µM | > 100 µM |  | > 100 µM | > 100 µM | > 100 µM | > 100 µM | > 100 µM |  |  |  |  |  |  |  |  |
| Nc1ncnc2c1nnn2C1C=CC(CP(=O)(O)O)C1 (centres undefined) | > 100 µM | > 100 µM | > 100 µM | > 100 µM | > 100 µM | > 100 µM |  | > 100 µM | > 100 µM | > 100 µM |  |  |  |  |  |  |  |  |
| COc1ccc(C2Oc3ccc(Cl)cc3C=C2[N+](=O)[O-])cc1 (centres undefined) |  | > 100 µM | > 100 µM | > 100 µM | > 100 µM | > 100 µM |  | > 100 µM | > 100 µM | > 100 µM |  |  |  |  |  |  |  |  |
| COC(=O)c1ccccc1C1CN=NC12Cc1c(ccc(C)c1C)C2=O (centres undefined) | > 100 µM | > 100 µM | > 100 µM | > 100 µM | > 100 µM | > 100 µM | > 100 µM | > 100 µM | > 100 µM |  |  |  |  |  |  |  |  |  |
| COc1ccc(C)cc1N1C(=O)C2ON(Cc3ccc(CC(N)=O)cc3)C(c3c4ccccc4c(Cl)c4ccccc34)C2C1=O (centres undefined) |  | > 100 µM | 73.3 µM | > 100 µM | > 100 µM | 82.3 µM |  | 93.7 µM | 49 µM |  |  |  |  |  |  |  |  |  |
| C[C@]12CCC3[C@@H](CCC45OC4C(=O)CC[C@]35C)C1Cc1cnn(-c3ccc(F)cc3)c1N2 (some centres undefined) |  |  | 33.9 µM |  | > 100 µM | 77.8 µM |  | > 100 µM |  | 54.7 µM |  |  |  |  |  |  |  |  |
| O=[N+]([O-])c1cccc(C2=NN(c3ccccc3)C3c4cc(Br)ccc4OCC23)c1 (centres undefined) | > 100 µM |  |  |  | > 100 µM | > 100 µM | > 100 µM | > 100 µM |  | > 100 µM |  |  |  |  |  |  |  |  |
| N#CNC(N)=NCc1ccccc1 | > 100 µM |  | > 100 µM |  | > 100 µM | > 100 µM | > 100 µM | > 100 µM |  | > 100 µM |  |  |  |  |  |  |  |  |
| CC1=NN(C(=O)Cc2ccccc2)C(=O)/C1=C\c1ccc(O)cc1 | > 100 µM |  | > 100 µM |  | > 100 µM | > 100 µM | > 100 µM | > 100 µM |  | > 100 µM |  |  |  |  |  |  |  |  |
| CC(=O)O[C@@H](c1nccn1Cc1ccccc1)[C@H]1OC(C)(C)O[C@@H]1[C@H]1COC(C)(C)O1 | > 100 µM |  | > 100 µM | > 100 µM |  | > 100 µM | > 100 µM | > 100 µM | > 100 µM | > 100 µM |  |  |  |  |  |  |  |  |
| COC(=O)/C=C(\C)CC/C=C(\C)CCC1OC1(C)C (centres undefined) | 22.8 µM |  | 21.9 µM | 17.4 µM | > 75 µM |  | 28.6 µM | 26.7 µM | 23.4 µM |  |  |  |  |  |  |  |  |  |
| CC1CC(N2CCOCC2)=Nc2ccccc2N1C (centres undefined) |  |  | > 100 µM | > 100 µM | > 100 µM | > 100 µM | > 100 µM | > 100 µM | > 100 µM | > 100 µM |  |  |  |  |  |  |  |  |
| CCCCCCCC(=O)OCC(COC(=O)C(C)(C)C)OC(=O)Cc1ccccc1 (centres undefined) | > 100 µM |  | > 100 µM |  | > 100 µM | > 100 µM | > 100 µM | > 100 µM |  | > 100 µM |  |  |  |  |  |  |  |  |
| O=C(COc1ccc(OCC(=O)N/N=C/c2ccc(-c3ccc(Cl)cc3Cl)o2)c(Cl)c1)N/N=C/c1ccc(-c2ccc(Cl)cc2Cl)o1 | > 100 µM | > 100 µM | > 100 µM | > 100 µM |  | > 100 µM | > 100 µM | > 100 µM | > 100 µM | 38.4 µM |  |  |  |  |  |  |  |  |
| COc1cc(C)c(CC/C(C)=C/Cc2cc(O)ccc2O)c(C)c1C | > 25 µM |  | > 25 µM |  | > 25 µM | > 25 µM | > 25 µM |  |  | > 25 µM |  |  |  |  |  |  |  |  |
| NS(=O)(=O)c1nnc(NC(=O)N(c2ccccc2)c2ccccc2)s1 |  |  | > 100 µM | > 100 µM | > 100 µM | > 100 µM |  | 77.3 µM | > 100 µM | 49.4 µM |  |  |  |  |  |  |  |  |
| COc1ccc(N=Nc2c(-c3c(OC)cc4occc4c3OC)[nH]c(=O)c(C#N)c2C)cc1 | > 100 µM | > 100 µM | > 100 µM | > 100 µM | > 100 µM | > 100 µM |  | > 100 µM | > 100 µM | > 100 µM |  |  |  |  |  |  |  |  |
| CCCCCCCCCCCCCCCCCCOc1ccccc1CC(=O)NCC[N+]1(C)CCOCC1 | 7.09 µM | 39.2 µM | 66.5 µM |  | 32.4 µM | 31.2 µM | 44 µM | 26.8 µM | 8.34 µM |  | 2.08 µM | 6.85 µM | 17.1 µM | 13.9 µM | 2.77 µM | 13.4 µM | 4.01 µM | 2.76 µM |
| O=c1oc2ccc3ccccc3c2cc1-c1cn2ccsc2n1 | 67.9 µM | 57.6 µM | 35.9 µM | 96.4 µM | > 100 µM | 56.3 µM |  | > 100 µM | 57.4 µM | 46.2 µM |  |  |  |  |  |  |  |  |
| CC(C)C(Br)CCC1=CCC(Br)(Br)C1 (centres undefined) | 28.1 µM |  |  | 28.5 µM | 28.1 µM | 31.2 µM | 32.8 µM | 30.8 µM | 20.7 µM |  |  |  |  |  |  |  |  |  |
